What was measured:
[1] = system: LoVo human colorectal adenocarcinoma cells; assay: In vitro antiproliferative assay (SRB), LoVo; assay type: cell-based; settings: for IC50: Homo sapiens, LoVo, 72 h exposure, SRB, mean ± SD; for Calculated selectivity index SIB: IC50 BALB/3T3/IC50 LoVo; for Calculated selectivity index SIA: IC50 HLMEC/IC50 LoVo
From the text: (§1) The following established in vitro cell lines were applied: human breast adenocarcinoma (MCF-7 and SK-BR-3), human breast ductal carcinoma (T47D), human prostate adenocarcinoma (PC-3), human prostate carcinoma (Du145), human colorectal adenocarcinoma (HT-29 and LoVo), doxorubicin-resistant human colorectal adenocarcinoma (LoVo/Dx), human myelomonocytic leukemia (MV-4-11), human lung adenocarcinoma (A549), normal murine embryonic fibroblasts (BALB/3T3) and human lung microvascular endothelial (HLMEC). All the cell lines were obtained from the American Type Culture Collection (Rockville, MD, USA) except for LoVo and LoVo/DX, which were received from the Technical University of Gdańsk, Poland, courtesy of Prof. E. Borowski. All the cell lines were maintained in the Institute of Immunology and Experimental Therapy, Wroclaw, Poland. The cells were cultured in the following media: DMEM medium (BALB/3T3), Eagle medium (MCF-7, SK-BR-3, Du145), RPMI medium (HLMEC, MV-4-11) or RPMI 1640 + Opti-MEM (1:1) medium (A549, T47D, LoVo, LoVo/Dx, PC-3, HT-29). The DMEM medium was supplemented with 2 mM L-glutamine and 10% fetal bovine serum. The Eagle medium was supplemented with 4 mM L-glutamine, 10% fetal bovine serum, 1 mM sodium pyruvate for Du145 cells or 2 mM L-glutamine, 1% amino acids and 0.8 mg L^−1 of insulin for MCF-7 and SK-BR-3. The RPMI medium was supplemented with 2 mM L-glutamine, 1 mM sodium pyruvate and 10% fetal bovine serum. The RPMI 1640 + Opti-MEM (1:1) medium was supplemented with 2 mM L-glutamine, 5% fetal bovine serum (PC-3, A549) and 0.8 mg L^−1 insulin (T47D) or 1 mM sodium pyruvate (HT-29, LoVo, LoVoDx) and 0.1 ug/mL doxorubicin (LoVo/Dx). The media contained antibiotics: 100 µg mL^−1 streptomycin and 100 U mL^−1 penicillin. All the cell lines were incubated at 37 °C in a humid atmosphere saturated with 5% CO2.
(§2) The details of this technique were described by Skehan et al.. After 72 h of incubation with the tested compounds, the cells were fixed in situ by gently adding cold 50% trichloroacetic acid—TCA (50 µL per well). The plates were incubated at 4 °C for 1 h and then washed five times with tap water and air-dried. Next, the cellular material fixed with TCA was stained by adding 50 µL of 0.4% sulforhodamine B dissolved in 1% acetic acid to each well and incubating the wells for 30 min at room temperature. The unbound dye was removed by washing the plates five times with 1% acetic acid, whereas the stain bound to the cells was extracted with 150 µL of 10 mM unbuffered Tris base for determination of the optical density at a 540 nm wavelength in a computer-interfaced, 96-well microtiter plate reader–Multiskan FC photometer (Thermo Scientific, Waltham, MA, USA). The background optical density was measured in the wells filled with culture medium, without the cells.
(§3) Twenty-four hours before incubation with the tested compounds, the cells were seeded in 96-well plates (Sarstedt, Nümbrecht, Germany) at a density of 10^4 cells per well (10^3 cells per well for HLMEC) in 100 µL of culture medium. The analysis of the antiproliferative activity of the compounds was performed using sulforhothamine B (SRB) (for all the adherent cells) or 3-(4,5-dimethylthiazol-2-yl)-2,5-diphenyl tetrazolium bromide (MTT) (for the leukemia cells—MV-4-11). The details of this technique have been previously described by Skehan et al. and Antoszak et al.. An assay was performed after 72 h of exposure at varying concentrations (from 0.1 to 100 µg mL^−1) of xanthohumol (1), aurone (2) and the reference drug cisplatin. Each compound at each concentration was tested in a single experiment, which was repeated at least 3 times. […] The results were calculated as the IC50 (μM) (half maximal inhibitory concentration), i.e., the concentration of the tested agent that inhibits the proliferation of the cancer cell population by half. […]

[2] = system: breast cancer cell lines MCF-7, SK-BR-3, T47D; assay: Selectivity towards all breast cancer cell lines tested (SRB); assay type: cell-based, human; settings: IC50 BALB/3T3/IC50 of MCF-7, SK-BR-3, T47D
Experimental: The selective effect of a drug can be expressed by the selectivity index (SI), which is determined by comparing the cytotoxic activity of each compound against each cancer cell line with the activity against a normal cell line. The SI was calculated as the IC50 ratio for a normal cell line (SIA—HLMEC; SIB—BALB/3T3) to the IC50 value for the corresponding tumor cell line using the following equation:(1) SI=IC50 for normal cell line/IC50 for cancerous cell line […]
The details of this technique were described by Skehan et al.. […] The unbound dye was removed by washing the plates five times with 1% acetic acid, whereas the stain bound to the cells was extracted with 150 µL of 10 mM unbuffered Tris base for determination of the optical density at a 540 nm wavelength in a computer-interfaced, 96-well microtiter plate reader–Multiskan FC photometer (Thermo Scientific, Waltham, MA, USA). The background optical density was measured in the wells filled with culture medium, without the cells. […]

[3] = system: Du145 human prostate carcinoma cells; assay: In vitro antiproliferative assay (SRB), Du145; assay type: cell-based; settings: for IC50: Homo sapiens, DU-145, Du145, 72 h exposure, SRB, mean ± SD; for Calculated selectivity index SIB: IC50 BALB/3T3/IC50 Du145; for Calculated selectivity index SIA: IC50 HLMEC/IC50 Du145
From the text: as §1, §2, §3

IC50 [1] | IC50 [3] | Structure (SMILES) | Calculated selectivity index SIB [1] | Calculated selectivity index SIA [1] | selectivity index SIB, range over breast cancer cell lines [2] | Calculated selectivity index SIB [3] | Calculated selectivity index SIA [3]
8.85 ± 4.85 µM | 14.7 ± 4.42 µM | COc1cc(O)c(CC=C(C)C)c2c1C(=O)/C(=C/c1ccc(O)cc1)O2 [compound 2, (Z)-6,4′-dihydroxy-4-methoxy-7-prenylaurone] | 5.02 | 5.97 | 3.93–5.50 | 3.02 | 3.59
5.53 ± 1.64 µM | 10.3 ± 0.42 µM | COc1cc(O)c(CC=C(C)C)c(O)c1C(=O)/C=C/c1ccc(O)cc1 [compound 1, 3′-[3″,3″-dimethylallyl]-2′,4′,4-trihydroxy-6′-methoxychalcone] | 3.55 | 6.56 |  | 1.90 | 3.51

Reference: article PMC10138577, “Prenylated Flavonoids with Selective Toxicity against Human Cancers” (International Journal of Molecular Sciences, 2023)
